Laboratory results from patent US11464780B2, “Pyrazolopyrimidine derivative and use thereof” (Simcere Pharmaceutical Co. Ltd., priority 2018, dated 2022).
pIC50: −log10 of the molar value. Read-outs that look alike come from different tables or passages of the source.

Tests used:
[1] = biological target: T1, Ros-G2032R (Homo sapiens, UniProt P08922, G2032R); experiment: Kinase inhibitory activity (33P-ATP filter binding, Reaction Biology Corp.); assay type: biochemical; conditions: read-out: The half maximal inhibitory concentration IC50 on the kinases, Ros-G2032R
T1 construct: purchased Reaction Biology Corp. (contract assay)
Protocol: (§1) The mixture was incubated at room temperature for 20 minutes. To the reaction mixture was added a certain concentration of ^33P-ATP to initiate the reaction, and then the mixture was incubated at room temperature for 120 minutes. The radioactivities of the reactants were determined by the method of filter binding. The final kinase activity was expressed as the ratio of the remaining kinase activity in the test sample to the kinase activity in the DMSO control group. The dose-effect curve was fitted by GraphPad software and the IC50 was calculated.

[2] = biological target: T2, Ros1 (Homo sapiens, UniProt P08922); experiment: as above; assay type: biochemical; conditions: read-out: The half maximal inhibitory concentration IC50 on the kinases, Ros1
T2 construct: purchased Reaction Biology Corp. (contract assay)
Protocol: as §1

[3] = biological target: T3, TrkA (Homo sapiens, UniProt P04629); experiment: as above; assay type: biochemical; conditions: read-out: The half maximal inhibitory concentration IC50 on the kinases, TrkA
T3 construct: purchased Reaction Biology Corp. (contract assay)
T3 sequence (P04629 33-796): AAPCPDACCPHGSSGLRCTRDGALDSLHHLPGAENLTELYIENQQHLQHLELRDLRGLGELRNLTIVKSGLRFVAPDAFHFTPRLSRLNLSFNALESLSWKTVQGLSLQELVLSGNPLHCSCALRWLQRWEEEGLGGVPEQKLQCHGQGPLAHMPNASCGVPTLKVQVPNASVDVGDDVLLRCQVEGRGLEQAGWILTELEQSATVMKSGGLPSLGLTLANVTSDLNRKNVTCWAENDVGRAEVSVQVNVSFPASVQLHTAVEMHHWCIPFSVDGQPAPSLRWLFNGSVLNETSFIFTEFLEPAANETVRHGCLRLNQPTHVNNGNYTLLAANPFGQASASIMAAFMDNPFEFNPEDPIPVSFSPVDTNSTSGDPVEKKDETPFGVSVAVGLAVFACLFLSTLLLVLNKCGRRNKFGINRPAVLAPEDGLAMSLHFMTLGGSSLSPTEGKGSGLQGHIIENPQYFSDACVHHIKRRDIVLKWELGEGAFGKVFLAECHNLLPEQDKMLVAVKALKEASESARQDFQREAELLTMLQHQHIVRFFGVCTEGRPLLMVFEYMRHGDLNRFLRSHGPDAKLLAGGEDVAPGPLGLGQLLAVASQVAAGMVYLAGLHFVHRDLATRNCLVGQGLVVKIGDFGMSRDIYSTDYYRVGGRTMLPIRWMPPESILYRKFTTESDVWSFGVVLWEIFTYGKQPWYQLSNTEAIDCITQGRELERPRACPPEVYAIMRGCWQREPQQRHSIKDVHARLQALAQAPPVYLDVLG
Protocol: as §1

[4] = biological target: T4, TrkA-G595R (Homo sapiens, UniProt P04629, G595R); experiment: as above; assay type: biochemical; conditions: read-out: The half maximal inhibitory concentration IC50 on the kinases, TrkA-G595R
T4 construct: purchased Reaction Biology Corp. (contract assay)
T4 sequence (P04629 33-796 G595R): as the sequence (P04629 33-796) above, with G563R counted along it
Protocol: as §1

[5] = biological target: T5, TrkA-G667C (Homo sapiens, UniProt P04629, G667C); experiment: as above; assay type: biochemical; conditions: read-out: The half maximal inhibitory concentration IC50 on the kinases, TrkA-G667C
T5 construct: purchased Reaction Biology Corp. (contract assay)
T5 sequence (P04629 33-796 G667C): as the sequence (P04629 33-796) above, with G635C counted along it
Protocol: as §1

[6] = biological target: T6, TrkC (Homo sapiens, UniProt Q16288); experiment: as above; assay type: biochemical; conditions: read-out: The half maximal inhibitory concentration IC50 on the kinases, TrkC
T6 construct: purchased Reaction Biology Corp. (contract assay)
Protocol: as §1

[7] = biological target: T7, ALK (Homo sapiens, UniProt Q9UM73); experiment: as above; assay type: biochemical; conditions: read-out: The half maximal inhibitory concentration IC50 on the kinases, ALK
T7 construct: purchased Reaction Biology Corp. (contract assay)
Protocol: The inhibitory activities of the compounds on TrkA, TrkC, ALK, Ros1 and other kinases were determined by Reaction Biology Corp. To reaction buffer (20 mM Hepes (pH 7.5), 10 mM MgCl2, 1 mM EGTA, 0.02% Brij35, 0.02 mg/mL BSA, 0.1 mM Na3VO4, 2 mM DTT, 1% DMSO) were sequentially added a certain concentration of substrate, coenzyme factor, kinase and test compound (10 concentrations, 3-fold serial dilutions, DMSO at a final concentration of […]), and the mixture was mixed evenly. The mixture was incubated at room temperature for 20 minutes. To the reaction mixture was added a certain concentration of ^33P-ATP to initiate the reaction, and then the mixture was incubated at room temperature for 120 minutes. The radioactivities of the reactants were determined by the method of filter binding. The final kinase activity was expressed as the ratio of the remaining kinase activity in the test sample to the kinase activity in the DMSO control group. The dose-effect curve was fitted by GraphPad software and the IC50 was calculated.

[8] = biological target: T8, Ba/F3 LMNA-NTRK1-WT stably transfected cell line (Homo sapiens, UniProt P04629); experiment: Cell proliferation inhibition (CellTiter-Glo); assay type: cell-based; conditions: 72 hours, read-out: The half maximal inhibitory concentration IC50 against cells, Ba/F3 LMNA-NTRK1-WT
T8 construct: fused on or other part: P02545 (Prelamin-A/C)
T8 sequence (P04629 whole entry, stated change not applied, the tested form may be a part): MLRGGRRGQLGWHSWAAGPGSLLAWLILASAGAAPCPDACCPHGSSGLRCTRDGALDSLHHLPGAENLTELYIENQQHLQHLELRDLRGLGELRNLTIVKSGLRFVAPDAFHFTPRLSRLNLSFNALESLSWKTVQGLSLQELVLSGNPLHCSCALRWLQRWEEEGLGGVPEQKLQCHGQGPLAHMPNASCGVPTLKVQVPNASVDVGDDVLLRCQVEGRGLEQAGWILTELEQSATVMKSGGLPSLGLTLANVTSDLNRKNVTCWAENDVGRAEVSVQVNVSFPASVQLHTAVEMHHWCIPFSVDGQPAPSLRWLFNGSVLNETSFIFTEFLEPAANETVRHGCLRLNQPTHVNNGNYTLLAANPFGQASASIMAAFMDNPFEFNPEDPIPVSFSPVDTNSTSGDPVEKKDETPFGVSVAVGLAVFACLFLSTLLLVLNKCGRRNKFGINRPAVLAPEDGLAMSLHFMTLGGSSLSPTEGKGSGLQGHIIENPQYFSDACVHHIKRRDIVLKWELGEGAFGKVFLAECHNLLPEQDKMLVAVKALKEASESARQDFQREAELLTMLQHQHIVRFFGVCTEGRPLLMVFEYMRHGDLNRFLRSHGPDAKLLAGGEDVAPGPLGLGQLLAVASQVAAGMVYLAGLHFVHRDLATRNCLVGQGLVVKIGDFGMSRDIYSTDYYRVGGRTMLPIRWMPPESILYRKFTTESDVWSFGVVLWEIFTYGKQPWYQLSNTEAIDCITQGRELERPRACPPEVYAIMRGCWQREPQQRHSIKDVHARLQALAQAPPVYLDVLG
Protocol: Adenosine Tri-Phosphate (ATP) is an energy carrier shared by various life activities in nature, and is the smallest unit of energy storage and transfer. The CellTiter-Glo™ cell viability detection kit uses luciferase as the detection substance, and luciferase requires the participation of ATP during the process of luminescence. CellTiter-Glo™ reagent is added to cell culture medium, and the luminescent intensity is measured. The luminescent signal is directly proportional to the amount of ATP in the system, and ATP is positively related to the number of living cells. Therefore, by using the CellTiter-Glo kit to detect ATP content, cell proliferation can be detected. In this assay, the cell line is Ba/F3 LMNA-NTRK1-WT stably transfected cell line, with 5000 cells/well.
IC50 Determination Process:
1. Cell Culture and Inoculation
a) the cells in the logarithmic growth phase were harvested, and counted with a platelet counter. Trypan blue exclusion method was used to detect cell viability to ensure the cell viability was no less than 90%.
b) the cell concentration was adjusted; 90 μL of cell suspension was added respectively into a 96-well plate.
c) the cells in the 96-well plates was cultured under conditions of 37° C., 5% CO2 and 95% humidity overnight.
2. Drug Dilution and Administration
a) 10-fold drug solutions were prepared, the highest concentration was 10 μM, 9 concentrations, 3-fold diluted (refer to Appendix I). 10 μL of each drug solution was added to each well of the 96-well plate seeded with the cells in triplicate.
b) the cells in the 96-well plate added with the drug were cultured under conditions of 37° C., 5% CO2 and 95% humidity for 72 hours, and then CTG (cell proliferation) was performed.
a) CellTiter-Glo™ reagent was thawed, and the cell plate was equilibrated at room temperature for 30 minutes.
b) CellTiter-Glo™ reagent of a same volume was added to each well;
c) the cell plate was shaken on an orbital shaker for 5 minutes to lyse the cells.
d) the cell plate was placed at room temperature for 20 minutes to stabilize the luminescent signal.
e) the luminescent intensity was read.
GraphPad Prism 5.0 software was used to analyze the data, nonlinear S-curve regression was used to fit the data to obtain dose-effect curve, and IC50 value was calculated therefrom.

[9] = biological target: T9, Ba/F3 LMNA-NTRK1-G595R stably transfected cell line (Homo sapiens, UniProt P04629, G595R, cells depend on it); experiment: Cell proliferation inhibition (CellTiter-Glo); assay type: cell-based; conditions: 72 hours, read-out: The half maximal inhibitory concentration IC50 against cells, Ba/F3 LMNA-NTRK1-G595R
T9 construct: fused on or other part: P02545 (Prelamin-A/C)
T9 sequence (P04629 whole entry G595R, the tested form may be a part): as the sequence (P04629 whole entry, stated change not applied, the tested form may be a part) above, with G595R counted along it

[10] = biological target: T10, BaF3 ETV6-NTRK3-G623R stably transfected cell line (Homo sapiens, UniProt Q16288, G623R, cells depend on it); experiment: Cell proliferation inhibition (CellTiter-Glo); assay type: cell-based; conditions: 72 hours, read-out: The half maximal inhibitory concentration IC50 against cells, BaF3 ETV6-NTRK3-G623R
T10 construct: fused on or other part: P41212 (Transcription factor ETV6)
T10 sequence (Q16288 whole entry G623R, the tested form may be a part): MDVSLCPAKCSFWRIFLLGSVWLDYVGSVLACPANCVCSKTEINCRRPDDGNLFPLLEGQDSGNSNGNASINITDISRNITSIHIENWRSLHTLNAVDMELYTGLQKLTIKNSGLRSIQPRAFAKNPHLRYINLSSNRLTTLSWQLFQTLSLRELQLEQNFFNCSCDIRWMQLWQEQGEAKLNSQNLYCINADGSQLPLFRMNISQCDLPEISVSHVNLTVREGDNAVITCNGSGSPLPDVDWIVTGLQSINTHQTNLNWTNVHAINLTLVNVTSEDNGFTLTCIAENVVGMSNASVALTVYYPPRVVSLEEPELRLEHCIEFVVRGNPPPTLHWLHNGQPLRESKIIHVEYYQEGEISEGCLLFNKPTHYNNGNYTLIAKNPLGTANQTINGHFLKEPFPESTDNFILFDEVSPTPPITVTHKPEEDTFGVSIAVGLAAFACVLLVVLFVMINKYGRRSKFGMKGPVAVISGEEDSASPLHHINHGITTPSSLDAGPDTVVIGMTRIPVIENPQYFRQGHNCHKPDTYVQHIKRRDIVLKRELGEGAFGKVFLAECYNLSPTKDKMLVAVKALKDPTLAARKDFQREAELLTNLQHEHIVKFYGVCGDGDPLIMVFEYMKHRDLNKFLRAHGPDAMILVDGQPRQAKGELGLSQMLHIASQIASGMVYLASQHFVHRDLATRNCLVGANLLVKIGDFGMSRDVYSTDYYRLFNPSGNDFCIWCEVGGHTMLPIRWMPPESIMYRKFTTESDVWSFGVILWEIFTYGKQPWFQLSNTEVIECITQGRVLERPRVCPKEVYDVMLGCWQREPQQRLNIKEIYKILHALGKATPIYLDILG

[11] = biological target: T11, Ba/F3 SLC34A2-ROS1-WT stably transfected cell line (Homo sapiens, UniProt P08922); experiment: Cell proliferation inhibition (CellTiter-Glo); assay type: cell-based; conditions: 72 hours, read-out: The half maximal inhibitory concentration IC50 against cells, Ba/F3 SLC34A2-ROS1-WT
T11 construct: fused on or other part: O95436 (Sodium-dependent phosphate transport protein 2B)
T11 sequence (P08922 whole entry, stated change not applied, the tested form may be a part): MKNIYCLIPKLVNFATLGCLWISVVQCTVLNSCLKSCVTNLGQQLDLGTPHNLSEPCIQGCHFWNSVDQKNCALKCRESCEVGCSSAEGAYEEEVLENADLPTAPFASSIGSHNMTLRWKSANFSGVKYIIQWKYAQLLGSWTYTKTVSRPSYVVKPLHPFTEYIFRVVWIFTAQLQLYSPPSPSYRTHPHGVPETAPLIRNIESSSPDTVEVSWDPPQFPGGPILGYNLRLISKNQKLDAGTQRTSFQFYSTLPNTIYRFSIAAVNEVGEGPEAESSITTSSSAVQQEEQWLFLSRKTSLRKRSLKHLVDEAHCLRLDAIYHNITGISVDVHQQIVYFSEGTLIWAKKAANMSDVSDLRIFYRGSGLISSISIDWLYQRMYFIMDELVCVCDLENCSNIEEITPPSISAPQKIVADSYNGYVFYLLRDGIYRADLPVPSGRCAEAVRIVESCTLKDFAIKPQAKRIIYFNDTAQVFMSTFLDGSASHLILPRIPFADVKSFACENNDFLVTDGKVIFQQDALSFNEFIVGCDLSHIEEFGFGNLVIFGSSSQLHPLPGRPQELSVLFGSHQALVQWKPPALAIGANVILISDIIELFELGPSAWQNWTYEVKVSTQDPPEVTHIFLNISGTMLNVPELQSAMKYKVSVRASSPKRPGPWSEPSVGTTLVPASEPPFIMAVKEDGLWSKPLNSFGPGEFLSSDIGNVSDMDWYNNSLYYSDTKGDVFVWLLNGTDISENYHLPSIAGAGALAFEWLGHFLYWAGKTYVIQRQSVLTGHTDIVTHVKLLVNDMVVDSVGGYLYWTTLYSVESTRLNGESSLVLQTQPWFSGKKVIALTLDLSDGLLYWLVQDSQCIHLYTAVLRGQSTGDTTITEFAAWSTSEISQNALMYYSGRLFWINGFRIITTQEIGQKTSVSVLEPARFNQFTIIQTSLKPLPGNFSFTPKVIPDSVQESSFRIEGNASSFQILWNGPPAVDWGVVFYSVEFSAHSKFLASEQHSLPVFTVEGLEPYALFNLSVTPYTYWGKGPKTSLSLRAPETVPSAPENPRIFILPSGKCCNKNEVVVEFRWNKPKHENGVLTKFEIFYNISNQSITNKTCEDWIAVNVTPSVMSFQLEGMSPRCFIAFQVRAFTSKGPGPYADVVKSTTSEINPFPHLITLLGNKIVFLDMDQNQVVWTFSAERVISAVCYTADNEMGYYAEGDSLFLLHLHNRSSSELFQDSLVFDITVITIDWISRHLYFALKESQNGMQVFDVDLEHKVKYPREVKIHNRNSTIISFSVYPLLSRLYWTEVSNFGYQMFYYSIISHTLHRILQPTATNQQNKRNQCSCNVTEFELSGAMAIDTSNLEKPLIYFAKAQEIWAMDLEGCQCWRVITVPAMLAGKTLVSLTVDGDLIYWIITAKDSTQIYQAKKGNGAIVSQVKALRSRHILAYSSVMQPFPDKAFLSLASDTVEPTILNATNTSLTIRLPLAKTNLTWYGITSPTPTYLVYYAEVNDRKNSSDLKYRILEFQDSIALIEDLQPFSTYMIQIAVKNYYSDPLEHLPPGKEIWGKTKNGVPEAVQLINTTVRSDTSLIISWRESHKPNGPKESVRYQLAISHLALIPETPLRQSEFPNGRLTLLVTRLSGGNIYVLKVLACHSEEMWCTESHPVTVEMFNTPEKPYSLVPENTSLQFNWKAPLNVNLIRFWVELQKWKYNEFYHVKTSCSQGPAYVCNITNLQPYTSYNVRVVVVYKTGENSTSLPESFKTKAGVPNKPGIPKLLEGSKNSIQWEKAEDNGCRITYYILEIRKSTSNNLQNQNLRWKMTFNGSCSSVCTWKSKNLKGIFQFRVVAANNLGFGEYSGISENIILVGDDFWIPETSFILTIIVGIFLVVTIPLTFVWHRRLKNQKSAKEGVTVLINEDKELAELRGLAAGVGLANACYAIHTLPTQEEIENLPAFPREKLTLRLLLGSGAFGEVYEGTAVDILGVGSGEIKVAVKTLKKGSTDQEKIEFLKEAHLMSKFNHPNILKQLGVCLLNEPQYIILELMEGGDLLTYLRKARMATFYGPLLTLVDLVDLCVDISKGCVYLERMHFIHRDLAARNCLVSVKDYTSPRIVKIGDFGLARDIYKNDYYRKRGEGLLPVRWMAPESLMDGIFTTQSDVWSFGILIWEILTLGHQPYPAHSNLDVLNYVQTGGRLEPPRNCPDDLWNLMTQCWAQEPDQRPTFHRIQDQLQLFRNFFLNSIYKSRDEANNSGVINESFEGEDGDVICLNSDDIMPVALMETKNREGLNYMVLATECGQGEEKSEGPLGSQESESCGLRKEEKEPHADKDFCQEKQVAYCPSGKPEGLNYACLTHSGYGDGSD

[12] = biological target: T12, Ba/F3 SLC34A2-ROS1-G2032R stably transfected cell line (Homo sapiens, UniProt P08922, G2032R, cells depend on it); experiment: Cell proliferation inhibition (CellTiter-Glo); assay type: cell-based; conditions: 72 hours, read-out: The half maximal inhibitory concentration IC50 against cells, Ba/F3 SLC34A2-ROS1-G2032R
T12 construct: fused on or other part: O95436 (Sodium-dependent phosphate transport protein 2B)
T12 sequence (P08922 whole entry G2032R, the tested form may be a part): as the sequence (P08922 whole entry, stated change not applied, the tested form may be a part) above, with G2032R counted along it

[13] = In vivo pharmacokinetic test in mice; design: species or system male CD-1 mice; conditions: for Vd / AUC(0-t) / half-life / bioavailability / Cmax / Tmax: male, CD-1, mouse, plasma; for Vd: read-out: Apparent volume of distribution Vd; for AUC(0-t): read-out: Area under the curve AUC0-last; for half-life: read-out: Half life T1/2 (converted); for bioavailability: PO dose of 10 mL/kg vs IV 3 mg/kg, read-out: Bioavailability F %; for Cmax: read-out: Peak concentration Cmax; for Tmax: read-out: Time of peak concentration Tmax
Protocol: Experimental object: male CD-1 mice aged 7-9 weeks were used as the experimental animals, the LC/MS/MS method was used to determine the drug concentrations in plasma at different time points after single intravenous (IV) and intragastric (PO) administration of the compounds, in vivo pharmacokinetic behaviors of the compounds of the present disclosure in mice were studied, and pharmacokinetic characteristics thereof were evaluated. Drug preparation: The compounds were prepared into clear solutions with 5% DMSO+10% solutol+85% water as solvent for administration in IV (intravenous) group and PO (intragastric). The dose of the compounds: IV dose of 3 mg/kg, and PO dose of […].

[14] = biological target: T13, Ba/F3 LMNA-NTRK1-F589L stably transfected cell line (Homo sapiens, UniProt P04629, F589L, cells depend on it); experiment: Cell proliferation inhibition (CellTiter-Glo); assay type: cell-based; conditions: 72 hours, read-out: The half maximal inhibitory concentration IC50 against cells, Ba/F3 LMNA-NTRK1-F589L
T13 construct: fused on or other part: P02545 (Prelamin-A/C)
T13 sequence (P04629 whole entry F589L, the tested form may be a part): as the sequence (P04629 whole entry, stated change not applied, the tested form may be a part) above, with F589L counted along it

Row | pIC50 [1] | pIC50 [2] | pIC50 [3] | pIC50 [4] | pIC50 [5] | pIC50 [6] | pIC50 [7] | GI50 [8] [nM] | GI50 [9] [nM] | GI50 [10] [nM] | GI50 [11] [nM] | GI50 [12] [nM] | Apparent clearance Cl ([13]; IV dose of 3 mg/kg) [mL/kg/min] | Vd ([13]; IV dose of 3 mg/kg) [L/kg] | AUC(0-t) ([13]; IV dose of 3 mg/kg) [µM·h] | half-life ([13]; IV dose of 3 mg/kg) [min] | bioavailability [13] [%] | AUC(0-t) ([13]; PO dose of 10 mL/kg) [µM·h] | Cmax ([13]; PO dose of 10 mL/kg) [µM] | Tmax ([13]; PO dose of 10 mL/kg) [min] | SMILES | further results
1 | 8.58 | 9.46 | 7.88 | 7.97 | 7.58 | 10.05 | 7.71 | 5.73 | 9.1 | 5.6 | 17.9 | 259 | 12.4 | 0.44 | 10.5 | 30 | 85 | 29.4 | 17.2 | 22.8 | C[C@H]1CNC(=O)c2cnn3ccc(nc23)N2OCC[C@@H]2c2cc(F)cnc2O1 [WX005B] | –
2 | 9.14 | 9.89 | 8.55 | 8.29 | 8.55 | 10.30 | 7.94 | 5.8 | 12.4 | 69.1 | 10.1 | 165 | 5.50 | 0.47 | 22.1 | 52.8 | 76 | 54.9 | 22.6 | 22.8 | O=C1N[C@@H]2CCC[C@@H]2Oc2ncc(F)cc2[C@H]2CCON2c2ccn3ncc1c3n2 [WX007A] | –
3 | 9.21 | – | 8.51 | – | – | – | – | 5.8 | 20.9 | 19.5 | 10.4 | 58.1 | 8.4 | 0.68 | 14 | 55.2 | 107 | 49.2 | 13 | 30 | O=C1N[C@@H]2COCC[C@@H]2Oc2ncc(F)cc2[C@H]2CCON2c2ccn3ncc1c3n2 [WX010B] | GI50 [14]: 4.26 nM
